Molecules are shown by their SMILES. Numbers after ± are expanded uncertainties.

Series [1] is described as follows: Molar enthalpy of transition or fusion. To be noted: Crystal; DSC.
For series [2] the following is noted: Crystal; DTA.

For the molecule `C[C@]12CCC(=O)C=C1CC[C@@H]1[C@@H]2[C@@H](O)C[C@@]2(C)[C@H]1CC[C@]2(O)C(=O)CO` [11β,17α,21-trihydroxypregn-4-ene-3,20-dione], in series [1], the “Molar enthalpy of transition or fusion” value was 9.15 ± 0.311 kcal/mol. In series [2], the Normal melting temperature amounted to 221.60 ± 1.1 °C.

Source of the values: the NIST ThermoML archive (doi:10.1016/j.fluid.2017.09.007).
